Test results as given in patent publication US10266493B2, “Thioacetate compounds, compositions and methods of use” (Ardea Biosciences, Inc., priority 2010, dated 2019).

These molecules were tested against URAT1 (Homo sapiens, UniProt Q96S37) (assay: URAT1-model assay: 14C-uric acid transport in HEK293/URAT1-model cells). Settings: HEK293 cells transfected with model URAT1 construct; 14C-uric acid uptake, 10 minutes at room temperature; read-out: URAT1 EC50 Activity Ranking.
Type: cell-based
Protocol: Transfections of HEK293 cells with a model URAT1 construct was performed using L2000 transfection reagent (Invitrogen) as described by the manufacturer. After 24 h the transfected cells were split into 10 cm tissue culture plates and grown for 1 day after which the medium was replaced with fresh growth medium containing G418 (Gibco) at 0.5 mg/ml final concentration. Drug-resistant colonies were selected after approximately 8 days and then tested for ^14C-uric acid transport activity. The HEK293/URAT1-model cells are plated on Poly-D-Lysine Coated 96-well Plates at a density of 125,000 cells per well.
Cells were grown overnight (20-26 hours) at 37° C. in an incubator. […] Plates were incubated at room temperature for 10 minutes then washed 3 times with 50 μl Wash Buffer and 3 times with 250 μl Wash Buffer. Microscint 20 Scintillation Fluid was added and plates were incubated overnight at room temperature to equilibrate. Plates are then read on the TopCount Plate Reader and an EC50 value generated.

Sequence of URAT1 (Q96S37 whole entry, looked up): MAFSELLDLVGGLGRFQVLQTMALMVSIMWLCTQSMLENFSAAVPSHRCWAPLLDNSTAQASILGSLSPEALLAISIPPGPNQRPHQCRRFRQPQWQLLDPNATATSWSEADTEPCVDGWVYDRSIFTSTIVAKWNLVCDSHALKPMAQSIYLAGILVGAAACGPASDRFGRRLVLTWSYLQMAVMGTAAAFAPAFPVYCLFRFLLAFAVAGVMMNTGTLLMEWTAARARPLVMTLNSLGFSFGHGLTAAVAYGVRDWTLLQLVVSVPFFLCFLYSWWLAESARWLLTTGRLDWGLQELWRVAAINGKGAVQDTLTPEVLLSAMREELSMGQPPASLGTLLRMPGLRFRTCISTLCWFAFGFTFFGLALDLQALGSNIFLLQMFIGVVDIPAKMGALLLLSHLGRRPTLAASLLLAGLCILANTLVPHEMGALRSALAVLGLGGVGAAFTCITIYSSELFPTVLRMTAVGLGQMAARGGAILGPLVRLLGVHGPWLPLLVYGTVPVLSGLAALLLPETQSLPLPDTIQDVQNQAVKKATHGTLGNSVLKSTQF

EC50, 0.5 to 10 µM:
CC(C)(Sc1ccncc1-c1ccc(C(=O)O)cc1F)C(=O)O [Example 2HHH]
CC(C)(Sc1ccncc1-c1ccc(N)cc1)C(=O)O [Example 2YY]
COc1ccc2cc(-c3cnccc3SC(C)(C)C(=O)O)ccc2c1 [Example 2V]
Cn1cc(-c2cnccc2SC(C)(C)C(=O)O)cn1 [Example 2QQ]
CC(C)(Sc1ccncc1-c1ccc(CC#N)cc1)C(=O)O [Example 2RR]
COc1ncc(-c2cnccc2SC(C)(C)C(=O)O)cn1 [Example 2HH]
CC(C)(Sc1ccncc1-c1ccc(CC(N)=O)cc1)C(=O)O [Example 2SS]
CC(C)(Sc1ccncc1-c1ccc2ccccc2c1)C(=O)O [Example 2Z]
CC(C)(Sc1ccncc1-c1ccc2c(c1)OCO2)C(=O)O [Example 2E]
Cc1ccc(-c2cnccc2SC(C)(C)C(=O)O)cn1 [Example 2LL]
N#Cc1ccc(-c2cnccc2SCC(=O)O)c2ccccc12 [Example 2B]
CC(C)(Sc1ncncc1-c1ccc(C#N)c2ccccc12)C(=O)O [Example 6B, 2-(5-(4-cyanonaphthalen-1-yl)pyrimidin-4-ylthio)-2-methylpropanoic Acid]
CN(C)c1ccc(-c2cnccc2SC(C)(C)C(=O)O)cc1 [Example 2OO]
N#Cc1ccc(-c2cccnc2SCC(=O)O)c2ccccc12 [Example 4B]
CC(C)(Sc1ccncc1-c1cc2ccccc2[nH]1)C(=O)O [Example 2G]
CC(C)(Sc1ccncc1-c1cccnc1)C(=O)O [Example 2M]
CC(C)(Sc1ccncc1-c1ccc2c(c1)OCCO2)C(=O)O [Example 2I]
N#Cc1ccc(-c2cnccc2SC(F)(F)C(=O)O)c2ccccc12 [Example 2FF]
CC(C)(Sc1ccncc1-c1ccccc1)C(=O)O [Example 2R]
CC(C)(Sc1ccncc1-c1cccc2cnccc12)C(=O)O [Example 2L]
CCOc1ccc2cc(-c3cnccc3SC(C)(C)C(=O)O)ccc2c1 [Example 2Y]
